The values that follow come from ChEMBL document CHEMBL4831492, “Design and synthesis of 2-(2-isonicotinoylhydrazineylidene)propanamides as InhA inhibitors with high antitubercular activity” (Eur J Med Chem, 2021).

Type in all cases: functional
Assay [1] has as its system Mycobacterium tuberculosis. As to the kind of experiment: Antimycobacterial activity against multi drug-resistant Mycobacterium tuberculosis praha 4 assessed as minimal inhibitory concentration required for complete inhibition of mycobacterial growth incubated for 21 days. Particulars: praha 4, 504 h, time 21 day.
Assay [2] concerns Mycobacterium tuberculosis. As to the kind of experiment: Antimycobacterial activity against multi drug-resistant Mycobacterium tuberculosis 234/2005 assessed as minimal inhibitory concentration required for complete inhibition of mycobacterial growth incubated for 14 days. Particulars: 234/2005, 336 h, time 14 day.
Assay [3] deals with Mycobacterium tuberculosis. Put plainly: Antimycobacterial activity against Mycobacterium tuberculosis H37Ra overexpressing InhA assessed as bacterial growth inhibition incubated for 28 days by drop dilution method. Particulars: 672 h, time 28 day.
Assay [4] deals with Mycobacterium tuberculosis. As to the kind of experiment: Antimycobacterial activity against multi drug-resistant Mycobacterium tuberculosis praha 4 assessed as minimal inhibitory concentration required for complete inhibition of mycobacterial growth incubated for 14 days. Particulars: praha 4, 336 h, time 14 day.
The subject of assay [5] is Mycobacterium tuberculosis. As to the kind of experiment: Antimycobacterial activity against multi drug-resistant Mycobacterium tuberculosis praha 1 assessed as minimal inhibitory concentration required for complete inhibition of mycobacterial growth incubated for 21 days. Particulars: praha 1, 504 h, time 21 day.
The test system of assay [6] is Mycobacterium tuberculosis. Put plainly: Antimycobacterial activity against multi drug-resistant Mycobacterium tuberculosis praha 1 assessed as minimal inhibitory concentration required for complete inhibition of mycobacterial growth incubated for 14 days. Particulars: praha 1, 336 h, time 14 day.
Assay [7] has as its system Mycobacterium tuberculosis. As to the kind of experiment: Antimycobacterial activity against multi drug-resistant Mycobacterium tuberculosis 7357/1998 assessed as minimal inhibitory concentration required for complete inhibition of mycobacterial growth incubated for 14 days. Particulars: 7357/1998, 336 h, time 14 day.
Assay [8] has as its system Mycobacterium tuberculosis. As to the kind of experiment: Antimycobacterial activity against multi drug-resistant Mycobacterium tuberculosis 8666/2010 assessed as minimal inhibitory concentration required for complete inhibition of mycobacterial growth incubated for 14 days. Particulars: 8666/2010, 336 h, time 14 day.
The subject of assay [9] is Mycobacterium tuberculosis. Put plainly: Antimycobacterial activity against multi drug-resistant Mycobacterium tuberculosis 9449/2007 assessed as minimal inhibitory concentration required for complete inhibition of mycobacterial growth incubated for 21 days. Particulars: 9449/2007, 504 h, time 21 day.
In assay [10] the test system is Mycobacterium tuberculosis. Put plainly: Antimycobacterial activity against multi drug-resistant Mycobacterium tuberculosis 8666/2010 assessed as minimal inhibitory concentration required for complete inhibition of mycobacterial growth incubated for 21 days. Particulars: 8666/2010, 504 h, time 21 day.
The test system of assay [11] is Mycobacterium tuberculosis. Put plainly: Antimycobacterial activity against multi drug-resistant Mycobacterium tuberculosis praha 131 assessed as minimal inhibitory concentration required for complete inhibition of mycobacterial growth incubated for 14 days. Particulars: praha 131, 336 h, time 14 day.
In assay [12] the test system is Mycobacterium tuberculosis. As to the kind of experiment: Antimycobacterial activity against multi drug-resistant Mycobacterium tuberculosis 9449/2007 assessed as minimal inhibitory concentration required for complete inhibition of mycobacterial growth incubated for 14 days. Particulars: 9449/2007, 336 h, time 14 day.
In assay [13] the test system is Mycobacterium tuberculosis. As to the kind of experiment: Antimycobacterial activity against multi drug-resistant Mycobacterium tuberculosis praha 131 assessed as minimal inhibitory concentration required for complete inhibition of mycobacterial growth incubated for 21 days. Particulars: praha 131, 504 h, time 21 day.
Assay [14] relates to Mycobacterium tuberculosis. As to the kind of experiment: Antimycobacterial activity against multi drug-resistant Mycobacterium tuberculosis 7357/1998 assessed as minimal inhibitory concentration required for complete inhibition of mycobacterial growth incubated for 21 days. Particulars: 7357/1998, 504 h, time 21 day.
Assay [15] deals with Mycobacterium tuberculosis. Put plainly: Antimycobacterial activity against Mycobacterium tuberculosis H37Ra overexpressing KatGs-meg assessed as bacterial growth inhibition incubated for 28 days by drop dilution method. Particulars: 672 h, time 28 day.
The test system of assay [16] is Mycobacterium tuberculosis. As to the kind of experiment: Antimycobacterial activity against multi drug-resistant Mycobacterium tuberculosis 234/2005 assessed as minimal inhibitory concentration required for complete inhibition of mycobacterial growth incubated for 21 days. Particulars: 234/2005, 504 h, time 21 day.

In brackets after ≈: the same amount, converted by molar mass.

With `C/C(=N\NC(=O)c1ccncc1)C(=O)Nc1ccc(I)cc1`, the MIC in assay [1] turned out to be 32 µM (≈ 13.1 µg/mL); in assay [2] it was 16 µM (≈ 6.53 µg/mL); in assay [3], 12.5 µM (≈ 5.1 µg/mL); in [4] it was 16 µM (≈ 6.53 µg/mL); in [5], 32 µM (≈ 13.1 µg/mL); in assay [6], 16 µM (≈ 6.53 µg/mL). Besides, the MIC in assay [7] worked out at 16 µM (≈ 6.53 µg/mL); in assay [8] it was 8 µM (≈ 3.27 µg/mL); in [9] it was 16 µM (≈ 6.53 µg/mL); in assay [10] it was 16 µM (≈ 6.53 µg/mL); in assay [11], 8 µM (≈ 3.27 µg/mL); in [12] it was 8 µM (≈ 3.27 µg/mL). In addition, the MIC turned out to be 16 µM (≈ 6.53 µg/mL) in [13], 32 µM (≈ 13.1 µg/mL) in [14], 0.25 µM (≈ 0.102 µg/mL) in assay [15] and 16 µM (≈ 6.53 µg/mL) in [16].
As for `C/C(=N\NC(=O)c1ccncc1)C(=O)Nc1cccc(Cl)c1`, the minimum inhibitory concentration (MIC) stood at 32 µM (≈ 10.1 µg/mL) in assay [1]; 64 µM (≈ 20.3 µg/mL) in assay [2]; 32 µM (≈ 10.1 µg/mL) in assay [4]; 32 µM (≈ 10.1 µg/mL) in [5]; 32 µM (≈ 10.1 µg/mL) in assay [6]; 32 µM (≈ 10.1 µg/mL) in [7]. The MIC was found to be 16 µM (≈ 5.07 µg/mL) in assay [8]; 64 µM (≈ 20.3 µg/mL) in assay [9]; 32 µM (≈ 10.1 µg/mL) in assay [10]; 32 µM (≈ 10.1 µg/mL) in assay [11]; 32 µM (≈ 10.1 µg/mL) in assay [12]; 64 µM (≈ 20.3 µg/mL) in assay [13]. Further, the MIC in assay [14] turned out to be 32 µM (≈ 10.1 µg/mL); in [16], 64 µM (≈ 20.3 µg/mL).
Consider `C/C(=N\NC(=O)c1ccncc1)C(=O)Nc1ccc(F)cc1`, for which the MIC was 64 µM (≈ 19.2 µg/mL) in [1]; 64 µM (≈ 19.2 µg/mL) in assay [2]; 32 µM (≈ 9.61 µg/mL) in [4]; 64 µM (≈ 19.2 µg/mL) in assay [5]; 64 µM (≈ 19.2 µg/mL) in assay [6]; 64 µM (≈ 19.2 µg/mL) in assay [7]. Besides, the minimum inhibitory concentration (MIC) was found to be 32 µM (≈ 9.61 µg/mL) in [8]; 32 µM (≈ 9.61 µg/mL) in assay [9]; 32 µM (≈ 9.61 µg/mL) in [10]; 64 µM (≈ 19.2 µg/mL) in [11]; 32 µM (≈ 9.61 µg/mL) in assay [12]; 64 µM (≈ 19.2 µg/mL) in [13]. In addition, the MIC in assay [14] stood at 64 µM (≈ 19.2 µg/mL); in [16], 125 µM (≈ 37.5 µg/mL).
On to `C/C(=N\NC(=O)c1ccncc1)C(=O)Nc1ccc(Cl)c(Cl)c1`, for which the MIC in [1] amounted to 125 µM (≈ 43.9 µg/mL); in assay [2], 64 µM (≈ 22.5 µg/mL); in assay [4] it was 64 µM (≈ 22.5 µg/mL); in assay [5], 125 µM (≈ 43.9 µg/mL); in assay [6] it was 64 µM (≈ 22.5 µg/mL); in [7], 64 µM (≈ 22.5 µg/mL). Also, the MIC in [8] came to 32 µM (≈ 11.2 µg/mL); in assay [9] it was 32 µM (≈ 11.2 µg/mL); in assay [10], 32 µM (≈ 11.2 µg/mL); in assay [11] it was 32 µM (≈ 11.2 µg/mL); in assay [12], 32 µM (≈ 11.2 µg/mL); in [13], 64 µM (≈ 22.5 µg/mL). Besides, the MIC in assay [14] and in assay [16] was 125 µM (≈ 43.9 µg/mL) each time.
Consider `C/C(=N\NC(=O)c1ccncc1)C(=O)Nc1ccc(C(F)(F)F)cc1`, for which the MIC in assay [1] was 64 µM (≈ 22.4 µg/mL); in assay [2] it was 32 µM (≈ 11.2 µg/mL); in assay [4], 32 µM (≈ 11.2 µg/mL); in assay [5] it was 64 µM (≈ 22.4 µg/mL); in [6] it was 32 µM (≈ 11.2 µg/mL); in assay [7], 32 µM (≈ 11.2 µg/mL). Also, the MIC in assay [8] was determined as 32 µM (≈ 11.2 µg/mL); in [9] it was 32 µM (≈ 11.2 µg/mL); in assay [10], 32 µM (≈ 11.2 µg/mL); in assay [11] it was 64 µM (≈ 22.4 µg/mL); in assay [12], 32 µM (≈ 11.2 µg/mL); in [13], 64 µM (≈ 22.4 µg/mL). Further, the MIC in [14] and in assay [16] was 64 µM (≈ 22.4 µg/mL) each time.
Turning to `C/C(=N\NC(=O)c1ccncc1)C(=O)Nc1ccc(Cl)cc1`, the MIC in assay [1], in [2], in [4], in assay [5], in assay [6] and in [7] was 32 µM (≈ 10.1 µg/mL) throughout. The MIC in [8] turned out to be 8 µM (≈ 2.53 µg/mL); in assay [9] it was 64 µM (≈ 20.3 µg/mL); in [10], 16 µM (≈ 5.07 µg/mL); in [11] it was 32 µM (≈ 10.1 µg/mL); in assay [12], 32 µM (≈ 10.1 µg/mL); in assay [13] it was 64 µM (≈ 20.3 µg/mL). Further, the MIC turned out to be 32 µM (≈ 10.1 µg/mL) in [14] and 64 µM (≈ 20.3 µg/mL) in [16].
As to `C/C(=N\NC(=O)c1ccncc1)C(=O)Nc1ccc(Br)cc1`, the MIC in assay [1], in assay [2], in [4], in assay [5], in assay [6] and in [7] was 32 µM (≈ 11.6 µg/mL) in each case. The MIC in [8] was found to be 32 µM (≈ 11.6 µg/mL); in [9], 64 µM (≈ 23.1 µg/mL); in [10], 32 µM (≈ 11.6 µg/mL); in assay [11], 32 µM (≈ 11.6 µg/mL); in assay [12] it was 32 µM (≈ 11.6 µg/mL); in assay [13] it was 64 µM (≈ 23.1 µg/mL). Besides, the minimal inhibitory concentration (MIC) in assay [14] turned out to be 32 µM (≈ 11.6 µg/mL); in assay [16], 64 µM (≈ 23.1 µg/mL).
`C/C(=N\NC(=O)c1ccncc1)C(=O)Nc1ccc(OC(F)(F)F)cc1`: the MIC in assay [1] worked out at 64 µM (≈ 23.4 µg/mL); in assay [2], 32 µM (≈ 11.7 µg/mL); in [3] it was 6 µM (≈ 2.2 µg/mL); in assay [4], 32 µM (≈ 11.7 µg/mL); in assay [5], 64 µM (≈ 23.4 µg/mL); in assay [6], 64 µM (≈ 23.4 µg/mL). Besides, the MIC was 32 µM (≈ 11.7 µg/mL) in assay [7]; 32 µM (≈ 11.7 µg/mL) in [8]; 64 µM (≈ 23.4 µg/mL) in assay [9]; 64 µM (≈ 23.4 µg/mL) in assay [10]; 64 µM (≈ 23.4 µg/mL) in assay [11]; 32 µM (≈ 11.7 µg/mL) in assay [12]. The minimal inhibitory concentration (MIC) in assay [13] was found to be 64 µM (≈ 23.4 µg/mL); in assay [14] it was 64 µM (≈ 23.4 µg/mL); in assay [15], 0.15 µM (≈ 0.0549 µg/mL); in [16] it was 32 µM (≈ 11.7 µg/mL).
